Source: US20220370384A1, “COMBINATIONS OF MEK INHIBITORS WITH CAP-DEPENDENT ENDONUCLEASE INHIBITORS” (priority 2019, published 2022)

What was measured:
Format in all cases: cell-based, influenza virus
[1] = test system: A/Mississippi/3/2001 (H1N1) mutant strain with the H275Y mutation in the NA gene
[2] = test system: rgA/Giessen/6/09 (H1N1)-PA-I38T
[3] = test system: rgA/Victoria/3/75 (H3N2-PA-I38T)

SMILES: CCOC(=O)C1=C[C@@H](OC(CC)CC)[C@H](NC(C)=O)[C@@H](N)C1 [oseltamivir]
- antiviral effectiveness [1]: significant reduction in oseltamivir effectiveness

SMILES: COC(=O)OCOc1c2n(ccc1=O)N([C@@H]1c3ccccc3SCc3c1ccc(F)c3F)[C@@H]1COCCN1C2=O [BLXM]
- activity lower when investigated using the mutant strain [2]: 37%
- activity lost in the mutant variant [3]: about 41%

SMILES: O=C(NOCC1CC1)c1ccc(F)c(F)c1Nc1ccc(I)cc1Cl [CI-1040]
- antiviral effectiveness [1]: comparable antiviral effect

SMILES: O=C(O)c1ccc(F)c(F)c1Nc1ccc(I)cc1Cl [ATR002, 2-(2-chloro-4-iodophenylamino)-N-3,4-difluoro benzoic acid]
- antiviral effect in mutant strain compared with wild type [2]: steady effect as found in the wild type
- antiviral activity [3]: revealed its potency against both variants
